According to patent US20210038587A1, “METHODS AND COMPOSITIONS FOR TREATING NON-ERK MAPK PATHWAY INHIBITOR-RESISTANT CANCERS” (BIOMED VALLEY DISCOVERIES, INC., priority 2013, published 2021):

Legend:
[1] = test system: A375; assay: Reverse Phase Protein Analysis (RPPA); format: cell-based, human; details: % change from DMSO (matched cell line)
Procedure: (§1) Control wells were treated with DMSO at 0.1% (v/v) for 6 hours prior to cell lysate generation. Samples were then analyzed using reverse-phase protein microarray technology (Theranostics Health).
(§2) Cell lines with common alterations in BRAF and RAS were assayed: BRAF^V600E mutant lines A375, Colo205, and HT29; KRAS^G12C-mutant cell line MIAPACa-2; KRAS^G13D-mutant cell line HCT116; and AN3Ca with atypical HRAS^F82L mutation. Changes in protein levels are shown as a percentage change from dimethyl sulfoxide (DMSO)-treated parental control (FIG. 32A and Table 23).

[2] = test system: HCT116; assay: Reverse Phase Protein Analysis (RPPA); format: cell-based, human; details: % change from DMSO (matched cell line)
Procedure: as §1, §2

Cc1cnc(Nc2ccc(F)cc2Cl)nc1-c1c[nH]c(C(=O)N[C@H](CO)c2cccc(Cl)c2)c1 [Vx-11e]
Avg (4ebp1 T70) [1]: 23.33% | Avg (Akt S473) [1]: 93.85% | Avg (Akt) [1]: −30.34% | Avg (Bad S136) [1]: 5.06% | Avg (Bad S155) [1]: −6.3% | Avg (Bak) [1]: 0.65% | Avg (Bax) [1]: −5.05% | Avg (Bcl 2) [1]: −9.93% | Avg (Bcl2 S70) [1]: −4.02% | Avg (Bcl 2 T56) [1]: −7.53% | Avg (Bim) [1]: 12.32% | Avg (CREB S133) [1]: −15.8% | Avg (Caspase 3 CL D175) [1]: −9.27% | Avg (Caspase 7 Cl D198) [1]: −7.62% | Avg (Chk1) [1]: −0.86% | Avg (Chk1 S345) [1]: 0.56% | Avg (Cyclin D1) [1]: −85.46% | Avg (ERK 1 2) [1]: −5.39% | Avg (ERK 1 2 T202 Y204) [1]: 128.93% | Avg (MAK1 S360) [1]: −7.63% | Avg (Mcl1) [1]: 1.6% | Avg (Raptor S792) [1]: −0.86% | Avg (Raptor) [1]: −12.7% | Avg (Rictor) [1]: −8.16% | Avg (Stat1) [1]: 0.23% | Avg (Stat3) [1]: 1.71% | Avg (bad S112) [1]: −69.29% | Avg (c Fos) [1]: −13.65% | Avg (c Myc) [1]: −0.97% | Avg (mTOR S2448) [1]: −21.66% | Avg (mTOR S2481) [1]: −2.9% | Avg (mTOR) [1]: −3.31% | Avg (p70 S6 Kinase) [1]: −6.42% | Avg (p90 RSK S380) [1]: −65.25% | Avg(Tuberin TSC2 Y1571) [1]: −3.55% | Avg(p70 S6 Kinase S371 S394) [1]: −17.32% | Avg(p70 S6 Kinase T389 T412) [1]: −25.54% | Avg (4ebp1 T70) [2]: 10.35% | Avg (Akt S473) [2]: −16.94% | Avg (Akt) [2]: −18.15% | Avg (Bad S136) [2]: −5.39% | Avg (Bad S155) [2]: −15.59% | Avg (Bak) [2]: −3.07% | Avg (Bax) [2]: −20.46% | Avg (Bcl 2) [2]: −17.3% | Avg (Bcl2 S70) [2]: −17.79% | Avg (Bcl 2 T56) [2]: −25% | Avg (Bim) [2]: 4.82% | Avg (CREB S133) [2]: −9.17% | Avg (Caspase 3 CL D175) [2]: −5.19% | Avg (Caspase 7 Cl D198) [2]: −11.41% | Avg (Chk1) [2]: −8.63% | Avg (Chk1 S345) [2]: −16.49% | Avg (Cyclin D1) [2]: −72.72% | Avg (ERK 1 2) [2]: −24.01% | Avg (ERK 1 2 T202 Y204) [2]: 873.33% | Avg (MAK1 S360) [2]: −13.73% | Avg (Mcl1) [2]: −7.79% | Avg (Raptor S792) [2]: −11.21% | Avg (Raptor) [2]: −4.32% | Avg (Rictor) [2]: 1.78% | Avg (Stat1) [2]: −14.06% | Avg (Stat3) [2]: −7.76% | Avg (bad S112) [2]: −23.88% | Avg (c Fos) [2]: −13.89% | Avg (c Myc) [2]: −18.56% | Avg (mTOR S2448) [2]: −10.12% | Avg (mTOR S2481) [2]: −17.82% | Avg (mTOR) [2]: −0.59% | Avg (p70 S6 Kinase) [2]: −4.45% | Avg (p90 RSK S380) [2]: −33.05% | Avg(S6 Ribo Prot S235 236) [2]: −90.03% | Avg(S6 Ribo Prot S240 244) [2]: −86.06% | Avg(Tuberin TSC2 Y1571) [2]: −16.51% | Avg(p70 S6 Kinase S371 S394) [2]: −9.89% | Avg(p70 S6 Kinase T389 T412) [2]: −20.99%
